Test system: MC38 tumors
Experiment: MC38 tumor growth and survival, oral L-arginine with or without αPD-L1
Assay type: in vivo, C57BL/6 WT mice
Conditions: s.c. MC38; L-arginine 2 g/kg oral gavage daily; αPD-L1 200 μg i.p. every second day; compared to control group
Method: FIGS. 1A, 1B, and 1C: 5×10^5 MC38 colon adenocarcinoma cells were injected s.c. in C57BL/6 WT mice and tumors were allowed to grow for 11 days before treatments were initiated. Control mice (n=13) received daily an oral gavage of H2O (100 μl) and every second day 200 μl of PBS i.p. The L-arginine group received daily an oral gavage of L-arginine (2 g/kg body weight in 100 μl) (n=19). The PD-L1 group received 200 μg of αPD-L1 mAb i.p. every second day (n=16). The Combo group received L-arginine (oral) and αPD-L1 (i.p.) (n=17). FIG. 1A depicts in vivo MC38 tumor growth (number of mice are indicated in the graph). Values represent mean tumor volume +/− SEM. FIG. 1C: Survival curves of different groups of mice. P values were determined by log-rank comparisons between the curves. FIG. 1B provide tumor growth curves of individual mice. P values were determined by two way ANOVA. *P<0.05, **P<0.01, ***P<0.001, ****P<0.0001, throughout.
MC38 murine colon adenocarcinoma cells were cultured in RPMI 1640 plus 10% heat-inactivated FCS, 1 mM Na-Pyruvate and 50 μM β-mercaptoethanol. Female C57BL/6 mice between the ages of 5 to 10 weeks were implanted with the MC38 cells. […] The size of tumors was measured in a blinded fashion using calipers. […] Tumors were collected, digested and tumor-infiltrating lymphocytes (TILs) were analyzed by flow cytometry.

N=C(N)NCCC[C@H](N)C(=O)O [L-arginine]
MC38 tumor growth: slightly reduced

Reference: patent US20220226397A1, “SYNERGISTIC COMBINATIONS OF ARGININE-PRODUCING BACTERIA AND/OR AMMONIA-CONSUMING BACTERIA AND CHECKPOINT INHIBITORS AND METHODS OF USE THEREOF” (Synlogic Operating Company, Inc., priority 2019, published 2022)
